Measured values as given in patent US20120270237A9, “METHODS FOR THE IDENTIFICATION OF KINASE INTERACTING MOLECULES AND FOR THE PURIFICATION OF KINASE PROTEINS” (Cellzone AG, priority 2009, published 2012).

How the values were obtained:
PIP5K2A = target: T1, PIP5K2A (Homo sapiens, UniProt P48426); assay: Kinobeads competition binding, HL60 cell lysate; set-up: endogenous in cells; conditions: 10 μM free compound
T1 sequence (P48426 1-406): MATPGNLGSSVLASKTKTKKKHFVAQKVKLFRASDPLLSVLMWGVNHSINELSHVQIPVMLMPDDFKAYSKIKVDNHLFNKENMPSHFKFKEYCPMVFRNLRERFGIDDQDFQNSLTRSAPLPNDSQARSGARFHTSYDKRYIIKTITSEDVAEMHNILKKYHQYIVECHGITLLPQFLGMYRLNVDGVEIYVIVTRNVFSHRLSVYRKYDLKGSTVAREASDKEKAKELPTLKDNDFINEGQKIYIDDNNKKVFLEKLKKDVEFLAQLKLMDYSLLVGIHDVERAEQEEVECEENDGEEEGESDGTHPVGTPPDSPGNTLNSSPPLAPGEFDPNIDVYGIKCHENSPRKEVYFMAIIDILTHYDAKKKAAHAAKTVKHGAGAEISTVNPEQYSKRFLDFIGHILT
In short: (§1)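 Target occupancy is inferred from reduced capture of each kinase on compound-coupled beads after lysate pre-treatment with 10 μM free compound, relative to a DMSO lysate. Quantitation used isobaric iTRAQ tags and tandem MS.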

IKKe = target: T2, IKKe (Homo sapiens, UniProt Q14164); assay: Kinobeads competition binding, HL60 cell lysate; set-up: endogenous in cells; conditions: 10 μM free compound
T2 sequence (Q14164 1-716): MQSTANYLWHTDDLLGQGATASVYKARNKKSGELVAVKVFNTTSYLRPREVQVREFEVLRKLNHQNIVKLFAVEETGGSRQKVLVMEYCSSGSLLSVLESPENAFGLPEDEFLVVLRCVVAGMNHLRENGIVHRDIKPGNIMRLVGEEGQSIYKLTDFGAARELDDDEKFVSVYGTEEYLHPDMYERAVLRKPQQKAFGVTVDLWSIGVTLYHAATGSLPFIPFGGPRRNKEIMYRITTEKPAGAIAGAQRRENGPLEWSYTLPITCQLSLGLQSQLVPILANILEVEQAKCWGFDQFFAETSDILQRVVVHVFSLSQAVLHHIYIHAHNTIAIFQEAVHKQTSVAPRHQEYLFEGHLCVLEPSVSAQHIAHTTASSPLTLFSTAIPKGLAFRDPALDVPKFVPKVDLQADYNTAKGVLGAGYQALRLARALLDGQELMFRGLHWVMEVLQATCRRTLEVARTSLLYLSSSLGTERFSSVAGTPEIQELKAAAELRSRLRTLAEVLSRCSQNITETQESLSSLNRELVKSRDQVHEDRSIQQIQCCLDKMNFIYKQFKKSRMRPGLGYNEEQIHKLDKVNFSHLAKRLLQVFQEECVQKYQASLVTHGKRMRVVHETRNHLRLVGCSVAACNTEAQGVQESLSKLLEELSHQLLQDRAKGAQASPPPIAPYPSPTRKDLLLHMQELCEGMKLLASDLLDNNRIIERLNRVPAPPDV
In short: as §1

inhibition at 10 µM (PIP5K2A): 97.6%
inhibition at 10 µM (IKKe): 91.4%
Compound: CS(=O)(=O)Nc1ccccc1Nc1nc(Nc2cccc(OCCN)c2)ncc1Cl [CZC31326, N-(2-(2-(3-(2-aminoethoxy)phenylamino)-5-chloropyrimidin-4-ylamino)phenyl)methanesulfonamide]
